Measurements reported in patent US20250059139A1, “COMPOUNDS FOR TREATMENT OF CANCER” (THE JOHNS HOPKINS UNIVERSITY, priority 2021, published 2025).
pIC50: −log10 of the molar value. Where “and” joins values, the source holds several entries; their conditions need not be identical. Equal entries are not always repeated.

Assays:
[1] = cited from earlier work
[2] = tested on: mCRPC patients; details: cited from earlier work
[3] = target: T1, fl-HDAC4 (Homo sapiens, UniProt P56524); assay: HDAC4 enzymatic assay with Lys(Tfa)-AMC substrate; assay type: biochemical
T1 construct: Full-length (fl) [A.A. 1-1082] recombinant human histone deacetylase 4 (rhHDAC4) protein; FLAG (N); GST (given as 'with or without'); made in house; host or cells: HEK293-T
T1 sequence (P56524 whole entry): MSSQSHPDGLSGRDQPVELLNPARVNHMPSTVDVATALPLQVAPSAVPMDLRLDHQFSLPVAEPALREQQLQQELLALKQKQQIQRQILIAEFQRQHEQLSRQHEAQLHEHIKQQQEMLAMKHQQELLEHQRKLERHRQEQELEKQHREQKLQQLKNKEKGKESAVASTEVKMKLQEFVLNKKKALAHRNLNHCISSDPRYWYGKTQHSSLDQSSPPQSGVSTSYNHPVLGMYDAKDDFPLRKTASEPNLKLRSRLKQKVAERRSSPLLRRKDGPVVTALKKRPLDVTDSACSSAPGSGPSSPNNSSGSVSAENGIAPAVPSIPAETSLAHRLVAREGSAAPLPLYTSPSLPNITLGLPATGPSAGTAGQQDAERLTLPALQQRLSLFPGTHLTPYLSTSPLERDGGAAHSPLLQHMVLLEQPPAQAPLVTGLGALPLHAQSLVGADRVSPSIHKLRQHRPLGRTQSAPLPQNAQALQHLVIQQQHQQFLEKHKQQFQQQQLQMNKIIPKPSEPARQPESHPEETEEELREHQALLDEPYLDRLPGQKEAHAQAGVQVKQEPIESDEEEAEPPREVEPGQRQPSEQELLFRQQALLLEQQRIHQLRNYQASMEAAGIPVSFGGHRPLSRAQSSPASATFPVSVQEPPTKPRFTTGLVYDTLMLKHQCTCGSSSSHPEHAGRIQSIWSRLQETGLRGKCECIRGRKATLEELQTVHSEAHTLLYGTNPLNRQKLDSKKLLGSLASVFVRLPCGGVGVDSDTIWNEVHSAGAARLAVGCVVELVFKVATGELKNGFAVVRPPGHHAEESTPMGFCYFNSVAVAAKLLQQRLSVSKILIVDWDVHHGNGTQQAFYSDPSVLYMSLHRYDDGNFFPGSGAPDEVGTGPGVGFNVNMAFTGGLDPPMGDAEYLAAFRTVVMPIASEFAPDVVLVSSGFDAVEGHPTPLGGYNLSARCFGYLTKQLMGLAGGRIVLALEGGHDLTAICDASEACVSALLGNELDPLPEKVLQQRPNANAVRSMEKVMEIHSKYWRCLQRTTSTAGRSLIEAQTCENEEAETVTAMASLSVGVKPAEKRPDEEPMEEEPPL
Method: HDAC4 Enzymatic Assay. HDAC4 activity of the various recombinant forms used through these studies was assayed using the small non-protein Lys(Tfa)-AMC as described previously (Bottomley et al. J. Biol. Chem. 2008, 283:26694-26704). The specificity of this assay is documented via its inhibition by a small molecule trifluoroacetylthiophene-trifluoromethylketone derivative (TFT-PIP) described previously (id.).
Thus, TasQ's inhibition of HDAC4/NCoR1 formation involves only its binding to HDAC4. To resolve whether such TasQ binding involves the ZCD vs. ZRD in HDAC4, we took advantage of the fact that while HDAC4 has only marginal deacetylase activity against acetylated lysine-containing proteins, it can deacetylate a small non-protein trifluoroacetamide substrate (a.k.a., Lys(Tfa)-AMC). This reaction is inhibited by a small molecule trifluoroacetylthiophene-trifluoromethylketone derivative [a.k.a., TFT-PIP (FIG. 16)] due to its binding to the catalytic Zn^2+ in the ZCD, which locks the ZRD in the open conformation (Bottomley 2008).

[4] = tested on: human prostate cancer cell lines; details: optimal normoxic, nutrient and pH culture conditions; previous studies; read-out: IC50 in vitro growth of human prostate cancer cell lines; cited from earlier work
[5] = target: S100A9 (Homo sapiens, UniProt P06702); details: Kallberg et al. 2012; cited from earlier work
Sequence of S100A9 (P06702 whole entry, species assumed): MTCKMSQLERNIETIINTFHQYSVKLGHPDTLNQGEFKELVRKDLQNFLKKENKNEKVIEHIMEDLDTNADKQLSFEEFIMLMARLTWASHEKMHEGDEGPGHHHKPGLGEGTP

[6] = tested on: HDAC4 KD LNCaP cells; assay: In vitro growth of HDAC4 KD LNCaP cells; assay type: cell-based, human
Method: Generation of stable shRNA Knock Down (KD) Variants. Stable shRNA HDAC4, and HIF-1α knockdown (KD) were as described previously (id.). Stable shRNA AHR KD as described previously (id.) using […] (SEQ ID NO: 1) as the targeting sequence.
Similarly, under such optimal conditions, knocking down HDAC4 expression by 50% with shRNA only decreases the growth of LNCaP cells by <25%, which is equivalent to the inhibition by TasQ at 10 μM (FIG. 22). […] In contrast to normoxic in vitro conditions, cancers outgrow their blood supply in vivo, producing a TME that is hypoxic, nutrient-limited, and acidic (low pH). For example, when prostate cancer xenografts growing subcutaneously reach a size of ˜0.2-0.3 cc, the TME is already hypoxic with a pO2 of 3.6+/−1.5 mmHg compared to 37.5+/−8.6 mmHg in normal tissue (Dalrymple et al. Prostate 72, 638-648 (2012)). When LNCaP cells are switched from 21% O2 (i.e., 160 mmHg) to a hypoxic condition of 1% O2 (i.e., 7.6 mmHg), their growth decreases by 50% (FIG. 22). This hypoxia-induced growth inhibition is enhanced by either knocking down HDAC4 or by treatment with TasQ (FIG. 22).

[7] = target: T2, fl-NCoR1 (Homo sapiens, UniProt O75376); assay: SPR binding of TasQ to immobilized fl-NCoR1; details: compound in solution
T2 construct: (N-terminal FLAG-tagged; AA 1-2440); FLAG (N); purchased Abcam ab82239
T2 sequence (O75376 whole entry, the tested form may be a part): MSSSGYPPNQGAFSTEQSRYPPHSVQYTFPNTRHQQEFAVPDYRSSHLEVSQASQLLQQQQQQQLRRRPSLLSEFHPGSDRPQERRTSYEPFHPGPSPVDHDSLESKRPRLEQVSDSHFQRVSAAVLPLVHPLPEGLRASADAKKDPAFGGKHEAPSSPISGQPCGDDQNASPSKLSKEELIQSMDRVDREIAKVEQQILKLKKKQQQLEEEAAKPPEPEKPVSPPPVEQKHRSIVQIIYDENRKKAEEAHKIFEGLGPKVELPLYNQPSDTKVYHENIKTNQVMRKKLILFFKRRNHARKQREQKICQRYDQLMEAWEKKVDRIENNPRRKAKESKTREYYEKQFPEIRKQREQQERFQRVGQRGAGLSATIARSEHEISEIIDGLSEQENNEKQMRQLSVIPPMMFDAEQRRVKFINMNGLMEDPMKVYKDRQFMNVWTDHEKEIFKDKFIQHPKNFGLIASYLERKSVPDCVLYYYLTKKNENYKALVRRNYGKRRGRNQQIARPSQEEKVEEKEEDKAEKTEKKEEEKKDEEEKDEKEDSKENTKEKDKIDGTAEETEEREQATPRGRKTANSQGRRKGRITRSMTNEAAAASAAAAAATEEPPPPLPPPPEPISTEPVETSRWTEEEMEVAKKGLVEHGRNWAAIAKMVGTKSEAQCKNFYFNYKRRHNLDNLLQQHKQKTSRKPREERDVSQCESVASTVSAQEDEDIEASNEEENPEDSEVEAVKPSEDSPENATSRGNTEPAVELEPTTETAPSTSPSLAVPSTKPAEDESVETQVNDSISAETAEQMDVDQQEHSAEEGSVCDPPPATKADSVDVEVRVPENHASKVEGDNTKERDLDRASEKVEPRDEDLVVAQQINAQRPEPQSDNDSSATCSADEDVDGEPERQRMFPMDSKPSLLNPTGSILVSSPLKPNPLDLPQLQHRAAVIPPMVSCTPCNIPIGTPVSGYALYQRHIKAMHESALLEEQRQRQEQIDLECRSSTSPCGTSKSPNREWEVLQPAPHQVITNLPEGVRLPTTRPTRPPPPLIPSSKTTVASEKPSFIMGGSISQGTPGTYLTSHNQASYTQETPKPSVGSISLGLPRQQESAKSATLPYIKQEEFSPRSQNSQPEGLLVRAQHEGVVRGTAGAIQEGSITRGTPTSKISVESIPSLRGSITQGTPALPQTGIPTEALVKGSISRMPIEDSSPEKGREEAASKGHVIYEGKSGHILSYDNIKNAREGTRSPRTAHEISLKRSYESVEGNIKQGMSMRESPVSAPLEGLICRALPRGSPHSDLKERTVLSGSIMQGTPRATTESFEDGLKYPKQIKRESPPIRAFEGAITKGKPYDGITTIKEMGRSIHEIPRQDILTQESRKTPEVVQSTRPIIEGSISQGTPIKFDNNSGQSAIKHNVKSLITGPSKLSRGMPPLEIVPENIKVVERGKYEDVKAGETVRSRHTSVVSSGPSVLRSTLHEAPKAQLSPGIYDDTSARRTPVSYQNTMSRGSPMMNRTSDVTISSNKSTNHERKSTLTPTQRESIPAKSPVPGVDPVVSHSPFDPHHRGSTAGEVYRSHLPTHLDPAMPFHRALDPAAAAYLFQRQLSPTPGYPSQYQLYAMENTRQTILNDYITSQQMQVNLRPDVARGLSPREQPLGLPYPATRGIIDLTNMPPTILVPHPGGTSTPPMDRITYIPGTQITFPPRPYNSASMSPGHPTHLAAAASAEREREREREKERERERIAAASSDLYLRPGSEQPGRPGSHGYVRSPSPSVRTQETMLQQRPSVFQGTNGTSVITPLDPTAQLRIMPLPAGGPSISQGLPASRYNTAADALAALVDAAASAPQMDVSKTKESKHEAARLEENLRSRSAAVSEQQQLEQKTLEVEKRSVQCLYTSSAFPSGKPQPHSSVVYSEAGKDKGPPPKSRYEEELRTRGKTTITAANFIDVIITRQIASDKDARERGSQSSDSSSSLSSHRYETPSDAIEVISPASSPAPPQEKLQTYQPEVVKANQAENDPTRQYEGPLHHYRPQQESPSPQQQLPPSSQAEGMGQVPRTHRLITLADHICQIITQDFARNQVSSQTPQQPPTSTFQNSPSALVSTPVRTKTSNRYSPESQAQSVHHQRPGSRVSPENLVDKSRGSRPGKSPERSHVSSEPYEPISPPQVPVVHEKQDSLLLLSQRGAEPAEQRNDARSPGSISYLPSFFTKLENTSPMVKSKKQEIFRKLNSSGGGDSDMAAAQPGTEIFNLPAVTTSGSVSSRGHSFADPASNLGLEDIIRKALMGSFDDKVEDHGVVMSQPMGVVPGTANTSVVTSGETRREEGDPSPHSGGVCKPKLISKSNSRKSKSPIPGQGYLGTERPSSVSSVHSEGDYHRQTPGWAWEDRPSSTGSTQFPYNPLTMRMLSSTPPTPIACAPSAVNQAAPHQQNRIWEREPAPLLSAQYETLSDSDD
Method: Surface Plasmon Resonance (SPR) Binding Analysis. SPR analysis was performed on the Biacore 3000™ system using CM5 sensor chips, certified buffers (HBS-P—10 mM HEPES, 0.15 M NaCl, pH 7.4, containing 0.005% v/v Surfactant P; HBS-EP-HBS-P with 3 mM EDTA) and reagents for immobilization and surface regeneration from Biacore, GE Healthcare, Uppsala Sweden. Evaluation of sensorgrams was performed using the BIA-evaluation Software version 4.1 and GraphPad Prism 4. Buffer of protein reagents were changed to HBS-P on Zeba spin desalting columns (Thermo Scientific) prior to being used in SPR analysis (Isaacs 2013).
B. Binding of TasQ to immobilized HDAC4 and NCoR1. Different variants of HDAC4 (full-length wild-type and mutant forms and the truncated protein) and full-length NCoR1 were immobilized on a CM5 chip using random amine coupling. Briefly, proteins were dissolved in 10 mM sodium acetate buffer at pH 5.0 or 5.5 and immobilized to the aimed level using the standard protocol from GE Healthcare. Serially diluted TasQ in HBS-P buffer with 10 or 20 μM Zn was injected (for 2 or 3 min at a flow rate of 30 μl/min) either directly or after a 1st injection of 1 mM DTT to reduce cysteines in the zinc conformation site in HDAC4. Regeneration was made with a short pulse of HBS-EP.
Thus, TasQ's inhibition of HDAC4/NCoR1 formation involves only its binding to HDAC4. […]

[8] = tested on: thymus; assay: AHR agonist induced thymus regression in FVB male mice; assay type: in vivo, mouse; details: mouse, in vivo, po, 30 mg/kg/day
Method: To evaluate AHR agonist induced thymus regression, groups of five 4-week old FVB male mice from Jackson Laboratory were treated with either vehicle, Linomide, TasQ, or its analogs daily by orally gavage for 2 weeks and then the thymus removed and weighted.
Oral Drug treatment. TasQ at the indicated dose was initially dissolved with equal molar 1 N sodium hydroxide. This solution was diluted with sterile water and the mixture stirred for 1 hr. The pH was then adjusted with 1 N HCl to 8.9 and 200 μL given daily via oral gavage.
This means that in the clinical setting, dose-escalation above 1 mg/d of TasQ as needed to reach this >2 μM blood level for optimal anti-cancer efficacy will also enhance unwanted off-target AHR induction. Therefore, a medicinal chemical approach was undertaken to identify third generation quinoline-3-carboxamide analogs with increased HDAC4 inhibition, but with reduced AHR agonism. The approach taken is based upon the earlier SPR analysis documenting that TasQ linked to the surface chip via its aniline-N is a potent binder of HDAC4. Thus, a series of quinoline-3-carboxamide analogs were synthesized focusing upon adduct changes at the aniline-N. These analogs were synthesized as described in Example 1, and were initially screened for their AHR agonist activity using the in vitro human cell-based ARE-driven luciferase reporter gene assay (Table 3).

COc1cccc2c1c(O)c(C(=O)N(C)c1ccc(C(F)(F)F)cc1)c(=O)n2C [TasQ, Tasquinimod]
blood concentrations maintained ([1]; daily oral 10 mg/kg/d): > 1000 nM
serum nadir ([1]; oral 5 mg/kg/d, at 24 hrs): 1.08 ± 0.21 µM
reduction of the risk of radiographic progression or death vs. placebo ([2]; Phase III, oral 1 mg/day, mCRPC patients on ADT): 36%
overall survival ([2]; Phase III, oral 1 mg/day): not enhanced
Cmax ([2]; human, in vivo, 1 mg): ~500 nM
maximum tolerated dose (MTD) in humans ([2]; human, in vivo): 1 mg
effect on enzymatic activity of fl-HDAC4 [3]: did not inhibit
pIC50 [4]: < 4.30 and ~4.30
affinity to S100A9 [5]: nanomolar (nM) affinity
effect on HDAC4 KD cells exposed to hypoxia ([6]; 10 μM, 1% O2): the cells die
inhibition at 10 µM ([6]; Homo sapiens, LNCaP, normoxic): > 50%
binding to immobilized fl-NCoR1 protein [7]: no detectable binding

COc1cccc2c1c(O)c(C(=O)N(c1ccc(C(F)(F)F)cc1)C1CCCCC1)c(=O)n2C [ESATA-20]
induction of thymus regression [8]: lack of induction
